Source: PubChem BioAssay (NCI)
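Cultured in 96-well plates, cells were exposed to test compound for 48 hours across five concentrations. The concentration for 50% growth inhibition is given as GI50. TGI denotes the concentration required for complete inhibition of growth.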

How the values were obtained:
Test in all cases: growth of human tumour cells (NCI), 48 h
KM12 colon = tested on: KM12 colon
NCI-H23 lung = tested on: NCI-H23 lung
LOX IMVI melanoma = tested on: LOX IMVI melanoma
K-562 leukemia = tested on: K-562 leukemia
SK-OV-3 ovarian = tested on: SK-OV-3 ovarian
HCC-2998 colon = tested on: HCC-2998 colon
HOP-92 NSCLC = tested on: HOP-92 NSCLC
DU-145 prostate = tested on: DU-145 prostate
NCI/ADR-RES ovarian = tested on: NCI/ADR-RES ovarian
IGROV1 ovarian = tested on: IGROV1 ovarian

Row | SMILES | GI50 (KM12 colon) | TGI (KM12 colon) | GI50 (NCI-H23 lung) | TGI (NCI-H23 lung) | GI50 (LOX IMVI melanoma) | TGI (LOX IMVI melanoma) | GI50 (K-562 leukemia) | TGI (K-562 leukemia) | GI50 (SK-OV-3 ovarian) | TGI (SK-OV-3 ovarian) | GI50 (HCC-2998 colon) | TGI (HCC-2998 colon) | GI50 (HOP-92 NSCLC) | TGI (HOP-92 NSCLC) | GI50 (DU-145 prostate) | TGI (DU-145 prostate) | GI50 (NCI/ADR-RES ovarian) | TGI (NCI/ADR-RES ovarian) | GI50 (IGROV1 ovarian) | TGI (IGROV1 ovarian)
1 | COc1ccc(/C(C)=C(\c2ccc(Cl)cc2)c2ccc(OCCN3CCCC3)cc2)cc1F | 1.26 µM | 4.5 µM | 3.55 µM | 7.27 µM | 1.04 µM | 3.66 µM | 0.944 µM | 4.54 µM | 4.18 µM | 7.86 µM | 3.44 µM | 6.94 µM | 3.12 µM | 6.63 µM | 3.9 µM | 8.28 µM | 3.9 µM | 7.8 µM | 3.17 µM | 7.21 µM
2 | CN1CCC[C@@H]1CCO[C@](C)(c1ccccc1)c1ccc(Cl)cc1 | 7.04 µM | 20.2 µM | 10.5 µM | 24.3 µM | 3.02 µM | 14.2 µM |  |  | 4.46 µM | 17.8 µM | 3.41 µM | 13.7 µM | 1.8 µM | 8.37 µM | 12.6 µM | 25.2 µM | 7.55 µM | 21.7 µM | 4.16 µM | 18.1 µM
3 | C/C(CC(=O)NNc1ccc([N+](=O)[O-])cc1)=N\Nc1ccc([N+](=O)[O-])cc1 | 2.12 µM | > 100 µM | 15 µM | 39.3 µM | 2.72 µM | > 100 µM | 0.622 µM | > 100 µM |  |  | 6.4 µM | > 100 µM | 7.94 µM | 28.3 µM | 17.4 µM | 89.9 µM | 15.1 µM | > 100 µM | 14.1 µM | > 100 µM
4 | O=C(O)C1NCCc2c1[nH]c1ccccc21 (stereo unspecified) | > 100 µM | > 100 µM | > 100 µM | > 100 µM |  | > 100 µM | > 100 µM | > 100 µM | > 100 µM | > 100 µM | > 100 µM | > 100 µM | > 100 µM | > 100 µM |  | > 10 µM |  | > 10 µM | > 100 µM | > 100 µM
5 | CCOC(=O)c1c(-c2ccccc2)[n+](=O)c2ccc(Cl)cc2n1[O-] | 5.43 µM | 18 µM | 11.2 µM | 23.4 µM | 1.66 µM | 3.91 µM | 4.69 µM | 18.5 µM | 15.5 µM | > 100 µM |  |  | 1.93 µM | 4.91 µM | 3.22 µM | 11.9 µM | 5.27 µM | 18.1 µM | 3.93 µM | 16.5 µM
6 | O=C(Nc1nccs1)c1cc2c(cc1Cl)Sc1nccn1S2(=O)=O | 12.4 µM | 26.6 µM | 16.9 µM | 33.7 µM | 10.9 µM | 25.6 µM | 15.9 µM | 37.1 µM | 24.5 µM | 63.9 µM | 15.9 µM | 29.4 µM |  | 39.4 µM | 16.3 µM | 30 µM | 18.9 µM | 44.7 µM | 11.7 µM | 29.8 µM
7 | COc1ccc2c(c1)CCc1c(-c3noc4c3CCc3cc(OC)ccc3-4)noc1-2 |  | > 100 µM |  | > 100 µM |  | > 100 µM |  | > 100 µM |  | > 100 µM |  | > 100 µM |  | > 100 µM |  | > 100 µM |  | > 100 µM |  | > 100 µM
8 | Cc1cc(C)c(O)c(Cc2cccc(Cc3cc(C)cc(C)c3O)c2O)c1 |  | > 100 µM |  | > 100 µM |  | > 100 µM |  | > 100 µM |  | > 100 µM |  |  |  | > 100 µM |  | > 100 µM |  | > 100 µM |  | > 100 µM
9 | COc1ccc(-c2cc(=O)c3c(OC)c(OC)c(OC)c(OC)c3o2)cc1OC |  |  |  | > 100 µM |  | > 100 µM |  | > 100 µM |  | > 100 µM |  | > 100 µM |  | 74.4 µM |  | > 100 µM |  | 97.1 µM |  | > 100 µM
10 | Cc1ccc(S(=O)(=O)/N=c2\ssc(Nc3ccccc3)c2Cl)cc1 | 8.26 µM | 20.4 µM | 11 µM | 27.1 µM | 10.2 µM | 20.9 µM | 18.4 µM | > 50 µM | 15.3 µM | > 50 µM |  |  | 7.43 µM | > 50 µM | 7.74 µM | 27.6 µM | 10.1 µM | 27.6 µM | 30.9 µM | > 50 µM
11 | O=C1N=C(c2ccccc2)OC1C(=O)c1ccccc1 (stereo unspecified) |  | > 100 µM |  | > 100 µM |  | > 100 µM |  | > 100 µM |  | > 100 µM |  | > 100 µM |  |  |  | > 100 µM |  | > 100 µM |  | > 100 µM
12 | Oc1ccc(CNCc2ccccc2)c2cccnc12 |  | > 100 µM |  | > 100 µM |  | > 100 µM |  | > 100 µM |  | > 76.9 µM |  |  |  | 0.57 µM |  | 38.4 µM |  | 16.9 µM |  | > 100 µM
13 | COc1cc(/C=C/C(=O)c2ccc(Nc3ncnc4ccccc34)cc2)cc(OC)c1 | 1.77 µM | 5.38 µM | 5.08 µM | 38.2 µM | 1.85 µM | 4.16 µM |  |  | 3.6 µM | 10.7 µM | 1.79 µM | 3.38 µM | 1.32 µM | 52.7 µM | 6.71 µM | 22.2 µM | 6.52 µM | > 100 µM | 13.5 µM | 60.2 µM
14 | Clc1cc(Cl)c(Cl)c(-c2nc(-c3cccnc3)cs2)c1 | 51.4 µM | > 100 µM | 30 µM | > 100 µM | 16 µM | 37.6 µM | > 100 µM | > 100 µM | > 100 µM | > 100 µM |  |  | 15.4 µM | 48.1 µM | 2.55 µM | 96.2 µM | 8.78 µM | > 100 µM | 32.8 µM | > 100 µM
15 | O=C(O)c1ccc2c(c1Nc1ccccc1)C(=O)c1ccccc1C2=O | 61.1 µM | > 100 µM | 19 µM | > 100 µM | 28.9 µM | > 100 µM | 68.5 µM | > 100 µM | 34.2 µM | > 100 µM |  |  | 27.9 µM | > 100 µM | 82.8 µM | > 100 µM | 52.3 µM | > 100 µM | 16.2 µM | > 100 µM
16 | CC#CS(=O)(=O)c1ccccc1 |  |  |  | 18.8 µM |  | 21 µM |  |  |  | 40.5 µM |  | 13.9 µM |  | 6.96 µM |  | 10.2 µM |  | 28.8 µM |  | 25.4 µM
